Results as given in US20260216347A1, “Substituted Imidazo-Based Compounds as Ligand Directed Degraders of IRAK3” (Celgene Corporation, priority 2022, published 2026).

Target: T1, IRAK3 (Homo sapiens, UniProt Q9Y616)
T1 construct: IRAK Endogenous HTRF Degradation Assay; endogenous in cells
T1 sequence (Q9Y616 1-596): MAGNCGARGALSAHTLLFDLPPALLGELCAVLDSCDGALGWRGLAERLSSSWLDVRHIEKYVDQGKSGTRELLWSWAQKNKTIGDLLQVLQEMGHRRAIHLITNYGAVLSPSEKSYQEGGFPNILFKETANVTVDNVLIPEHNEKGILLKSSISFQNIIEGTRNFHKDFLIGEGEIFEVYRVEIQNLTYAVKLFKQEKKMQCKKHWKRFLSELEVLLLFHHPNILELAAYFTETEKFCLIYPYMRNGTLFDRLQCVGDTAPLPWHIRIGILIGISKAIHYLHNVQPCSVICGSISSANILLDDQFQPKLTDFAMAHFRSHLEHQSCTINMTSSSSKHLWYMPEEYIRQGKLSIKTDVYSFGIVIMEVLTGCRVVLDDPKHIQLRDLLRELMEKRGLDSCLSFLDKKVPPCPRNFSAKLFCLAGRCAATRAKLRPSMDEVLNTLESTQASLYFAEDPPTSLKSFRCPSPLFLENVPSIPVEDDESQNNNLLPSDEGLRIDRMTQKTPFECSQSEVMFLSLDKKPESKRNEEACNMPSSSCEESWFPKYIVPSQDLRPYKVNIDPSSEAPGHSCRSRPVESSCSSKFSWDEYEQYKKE
Assay: IRAK endogenous HTRF degradation assay (Total-IRAK3 HTRF kit)
Format: cell-based
Details: overnight incubation, lowest percentage of protein remaining
Procedure, shortened: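 Cells (~50 k) incubated overnight with 3-fold serial dilutions of compound, then lysed; total IRAK3 read by HTRF (665/615 nm ratio ×10,000), normalized to DMSO as 100%. EC50 from four-parameter logistic fit; Dmax = 100 − Ymin (lowest % protein remaining); DC50 = concentration giving 50% degradation.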

| IRAK3 HTRF degradation Ymin [%] | SMILES |
| --- | --- |
| 64 | Cc1cc(-c2cnc(Nc3cnn(C4CCN(CCN5CCN(c6ccc([C@]7(C)CCC(=O)NC7=O)cc6)CC5)CC4)c3)c3nccn23)c(F)cc1F [Compound 76, (S)-3-(4-(4-(2-(4-(4-((5-(2,4-difluoro-5-methylphenyl)imdazo [1,2-a]pyrazin-8-yl)amino)-1H-pyrazol-1-yl)piperidin-1-yl)ethyl)piperazin-1-yl)phenyl)-3-methylpiperidine-2,6-dione] |
| 8.3 | Cc1cc(-c2cnc(Nc3cnn(C4CCN(CCN5CCN(c6ccc([C@@]7(C)CCC(=O)NC7=O)cc6)CC5)CC4)c3)c3nccn23)c(F)cc1F [Compound 77, (R)-3-(4-(4-(2-(4-(4-((5-(2,4-difluoro-5-methylphenyl)imdazo [1,2-a]pyrazin-8-yl)amino)-1H-pyrazol-1-yl)piperidin-1-yl)ethyl)piperazin-1-yl)phenyl)-3-methylpiperidine-2,6-dione] |
| 11 | O=C1CCC(c2ccc(N3CCN(CCN4CCC(n5cc(Nc6ncc(-c7cccc(F)c7)n7ccnc67)cn5)CC4)CC3)cc2)C(=O)N1 (stereo not drawn) [Compound 80, 3-(4-(4-(2-(4-(4-((5-(3-fluorophenyl)imidazo [1,2-a]pyrazin-8-yl)amino)-1H-pyrazol-1-yl)piperidin-1-yl)ethyl)piperazin-1-yl)phenyl) piperidine-2,6-dione] |
| 7.8 | Cc1cc(-c2cnc(Nc3cnn([C@H]4CC[C@H](CCN5CCN(c6ccc([C@@]7(C)CCC(=O)NC7=O)cc6)CC5)CC4)c3)c3nccn23)c(F)cc1F [Compound 81, (R)-3-(4-(4-(2-((trans)-4-(4-((5-(2,4-difluoro-5-methylphenyl)imidazo[1,2-a]pyrazin-8-yl)amino)-1H-pyrazol-1-yl)cyclohexyl)ethyl)piperazin-1-yl)phenyl)-3-methylpiperidine-2,6-dione] |
| 40 | Cc1cc(-c2cnc(Nc3cnn([C@H]4CC[C@H](CCN5CCN(c6ccc([C@]7(C)CCC(=O)NC7=O)cc6)CC5)CC4)c3)c3nccn23)c(F)cc1F [Compound 82, (S)-3-(4-(4-(2-((trans)-4-(4-((5-(2,4-difluoro-5-methylphenyl)imidazo[1,2-a]pyrazin-8-yl)amino)-1H-pyrazol-1-yl)cyclohexyl)ethyl)piperazin-1-yl)phenyl)-3-methylpiperidine-2,6-dione] |

More lines, now with the values behind:

| SMILES | IRAK3 HTRF degradation Ymin [%] |
| --- | --- |
| Cc1cc(-c2cnc(Nc3cnn([C@H]4CCN(CCN5CCN(c6ccc(C7CCC(=O)NC7=O)cc6)C[C@H]5C)[C@@H](C)C4)c3)c3nccn23)c(F)cc1F (stereo partly drawn) [Compound 35, 3-(4-((R)-4-(2-((2S,4S)-4-(4-((5-(2,4-difluoro-5-methylphenyl)imdazo [1,2-a]pyrazin-8-yl)amino)-1H-pyrazol-1-yl)-2-methylpiperidin-1-yl)ethyl)-3-methylpiperazin-1-yl)phenyl) piperidine-2,6-dione] | 7.6 |
| Cc1cc(-c2cnc(Nc3cnn([C@H]4CCN(CCN5CCN(c6ccc(C7CCC(=O)NC7=O)cc6)CC5)C[C@@H]4F)c3)c3nccn23)c(F)cc1F (stereo partly drawn) [Compound 72, 3-(4-(4-(2-((3S,4S)-4-(4-((5-(2,4-difluoro-5-methylphenyl)imdazo [1,2-a]pyrazin-8-yl)amino)-1H-pyrazol-1-yl)-3-fluoropiperidin-1-yl)ethyl)piperazin-1-yl)phenyl) piperidine-2,6-dione] | 8.3 |
| O=C1CCC(c2ccc(N3CCN(CCN4CCC(n5cc(Nc6ncc(-c7ccc(F)cc7)n7ccnc67)cn5)CC4)CC3)cc2)C(=O)N1 (stereo not drawn) [Compound 74, 3-(4-(4-(2-(4-(4-((5-(4-fluorophenyl)imidazo [1,2-a]pyrazin-8-yl)amino)-1H-pyrazol-1-yl)piperidin-1-yl)ethyl)piperazin-1-yl)phenyl) piperidine-2,6-dione] | 9.8 |
| O=C1CCC(c2ccc(N3CCN(CCN4CCC(n5cc(Nc6ncc(-c7ccccc7F)n7ccnc67)cn5)CC4)CC3)cc2)C(=O)N1 (stereo not drawn) [Compound 75, 3-(4-(4-(2-(4-(4-((5-(2-fluorophenyl)imidazo [1,2-a]pyrazin-8-yl)amino)-1H-pyrazol-1-yl)piperidin-1-yl)ethyl)piperazin-1-yl)phenyl) piperidine-2,6-dione] | 9.8 |
